This note sets out measurements from patent US9278962B2 (Cytokinetics, Inc., priority 2011, dated 2016).

Structures are written as SMILES.

This assay has as its system rabbit skeletal myofibrils (approximately 90% fast fibers). The assay can be described thus: Activation of fast skeletal myofibrils (PUMA coupled-enzyme ATPase assay, AC1.4). The assay is classed as biochemical. The note with it: concentration at which the compound increased enzymatic activity by 40%, calcium at pCa25.

With `CC(C)(CNc1nc(-c2ccccc2CO)ns1)c1ccc(F)cc1` [[2-(5-{[2-(4-fluorophenyl)-2-methylpropyl]amino}-1,2,4-thiadiazol-3-yl)phenyl]methan-1-ol], the “Mean AC1.4” value (Table 2) is on record as “B (B=1-10 uM)”.
Regarding `CN(C)CCN(C)c1nsc(NCC(C)(C)c2ccc(F)cc2)n1` [[2-(dimethylamino)ethyl](5-{[2-(4-fluorophenyl)-2-methylpropyl]amino}(1,2,4-thiadiazol-3-yl))methylamine], the “Mean AC1.4” value (Table 2) is on record as “D (D=>20 uM)”.
Consider `COc1ccc(-c2nsc(NCC(C)(C)c3ccc(F)cc3)n2)c(Cl)c1` [[3-(2-chloro-4-methoxyphenyl)(1,2,4-thiadiazol-5-yl)][2-(4-fluorophenyl)-2-methylpropyl]amine], for which the “Mean AC1.4” value (Table 2) is reported as “B (B=1-10 uM)”.
Still for that read-out and setting: the same measure for `CC(C)(CNc1nc(-c2ccc3[nH]nc(N)c3c2)ns1)c1ccc(F)cc1` [[3-(3-amino(1H-indazol-5-yl))(1,2,4-thiadiazol-5-yl)][2-(4-fluorophenyl)-2-methylpropyl]amine]: “A (A=<1 uM)”; for `CC(C)(CNc1nc(-c2ccc3c(N)n[nH]c3c2)ns1)c1ccc(F)cc1` [[3-(3-amino(1H-indazol-6-yl))(1,2,4-thiadiazol-5-yl)][2-(4-fluorophenyl)-2-methylpropyl]amine]: “A (A=<1 uM)”; for `CC(C)(CNc1nc(-c2ccc(F)cc2)ns1)c1ccc(F)cc1` [[3-(4-fluorophenyl)(1,2,4-thiadiazol-5-yl)][2-(4-fluorophenyl)-2-methylpropyl]amine]: “B (B=1-10 uM)”.
Same read-out and setting: the same measure for `CN(C)C(=O)c1cccc(-c2nsc(NCC(C)(C)c3ccc(F)cc3)n2)c1` [[3-(5-{[2-(4-fluorophenyl)-2-methylpropyl]amino}(1,2,4-thiadiazol-3-yl))phenyl]-N,N-dimethylcarboxamide]: “B (B=1-10 uM)”; for `CNC(=O)c1cccc(-c2nsc(NCC(C)(C)c3ccc(F)cc3)n2)c1` [[3-(5-{[2-(4-fluorophenyl)-2-methylpropyl]amino}(1,2,4-thiadiazol-3-yl))phenyl]-N-methylcarboxamide]: “A (A=<1 uM)”; for `CC(C)(CNc1nc(CCCNS(C)(=O)=O)ns1)c1ccc(F)cc1` [[3-(5-{[2-(4-fluorophenyl)-2-methylpropyl]amino}(1,2,4-thiadiazol-3-yl))propyl](methylsulfonyl)amine]: “B (B=1-10 uM)”.
As to `CC(C)(CNc1nc(-c2cccc(CO)c2)ns1)c1ccc(F)cc1` [[3-(5-{[2-(4-fluorophenyl)-2-methylpropyl]amino}-1,2,4-thiadiazol-3-yl)phenyl]methan-1-ol], where the note is “Table 2”, the “Mean AC1.4” value is given as “B (B=1-10 uM)”.
Regarding `COC/C=C/c1nsc(NCC(C)(C)c2ccc(F)cc2)n1` [[3-((1E)-3-methoxyprop-1-enyl)(1,2,4-thiadiazol-5-yl)][2-(4-fluorophenyl)-2-methylpropyl]amine], for the setting “Table 2”, the “Mean AC1.4” value is given as “B (B=1-10 uM)”.
For `CNC(=O)c1ccc(-c2nsc(NCC(C)(C)c3ccc(F)cc3)n2)cc1` [[4-(5-{[2-(4-fluorophenyl)-2-methylpropyl]amino}(1,2,4-thiadiazol-3-yl))phenyl]-N-methylcarboxamide], the “Mean AC1.4” value (Table 2) is given as “A (A=<1 uM)”.
Same read-out and setting: the result for `CC(C)(CNc1nc(-c2ccc(CO)cc2)ns1)c1ccc(F)cc1` [[4-(5-{[2-(4-fluorophenyl)-2-methylpropyl]amino}-1,2,4-thiadiazol-3-yl)phenyl]methan-1-ol] reads “B (B=1-10 uM)”; that for `CNC(=O)c1ccc(-c2nsc(NCC(C)(C)c3ccc(F)cc3)n2)cn1` [[5-(5-{[2-(4-fluorophenyl)-2-methylpropyl]amino}(1,2,4-thiadiazol-3-yl))(2-pyridyl)]-N-methylcarboxamide], “B (B=1-10 uM)”; that for `COc1cccc(Cc2nsc(NC[C@H](C)c3ccc(F)cc3)n2)c1` [[(2R)-2-(4-fluorophenyl)propyl]{3-[(3-methoxyphenyl)methyl](1,2,4-thiadiazol-5-yl)}amine], “B (B=1-10 uM)”.
The same measure, in the same setting: the result for `C[C@H](CNc1nc(-c2cn[nH]c2)ns1)c1ccc(F)cc1` [[(2S)-2-(4-fluorophenyl)propyl](3-pyrazol-4-yl(1,2,4-thiadiazol-5-yl))amine] reads “B (B=1-10 uM)”.
`COc1cccc(Cc2nsc(NC[C@@H](C)c3ccc(F)cc3)n2)c1` [[(2S)-2-(4-fluorophenyl)propyl]{3-[(3-methoxyphenyl)methyl](1,2,4-thiadiazol-5-yl)}amine]: the “Mean AC1.4” value (Table 2) was “A (A=<1 uM)”.
Regarding `COc1cccc(Cc2nsc(NCc3ccc(Cl)c(Cl)c3)n2)c1` [[(3,4-dichlorophenyl)methyl]{3-[(3-methoxyphenyl)methyl](1,2,4-thiadiazol-5-yl)}amine], the “Mean AC1.4” value (Table 2) is on record as “D (D=>20 uM)”.
For the molecule `Fc1ccc(Cc2nsc(NCc3ccc(Cl)c(Cl)c3)n2)cc1` [[(3,4-dichlorophenyl)methyl]{3-[(4-fluorophenyl)methyl])1,2,4-thiadiazol-5-yl)}amine], the “Mean AC1.4” value (Table 2) was “D (D=>20 uM)”.
The same measure, in the same setting: the same measure for `COc1cccc(Cc2nsc(NCc3ccc(Cl)cc3)n2)c1` [[(4-chlorophenyl)methyl]{3-[(3-methoxyphenyl)methyl](1,2,4-thiadiazol-5-yl)}amine]: “D (D=>20 uM)”.
Consider `Clc1ccc(CNc2nc(Cc3ccc(Cl)cc3)ns2)cc1` [[(4-chlorophenyl)methyl]{3-[(4-chlorophenyl)methyl](1,2,4-thiadiazol-5-yl)}amine], for which the “Mean AC1.4” value (Table 2) is reported as “D (D=>20 uM)”.
For the molecule `Fc1ccc(Cc2nsc(NCc3ccc(Cl)cc3)n2)cc1` [[(4-chlorophenyl)methyl]{3-[(4-fluorophenyl)methyl])1,2,4-thiadiazol-5-yl)}amine], the “Mean AC1.4” value (Table 2) was “D (D=>20 uM)”.
Turning to `CN(C)Cc1nsc(NCC(C)(C)c2ccc(F)cc2)n1` [[(5-{[2-(4-fluorophenyl)-2-methylpropyl]amino}(1,2,4-thiadiazol-3-yl))methyl]dimethylamine], where the note is “Table 2”, the “Mean AC1.4” value is “D (D=>20 uM)”.
With `CNCc1nsc(NCC(C)(C)c2ccc(F)cc2)n1` [[(5-{[2-(4-fluorophenyl)-2-methylpropyl]amino}(1,2,4-thiadiazol-3-yl))methyl]methylamine], the “Mean AC1.4” value (Table 2) is listed as “D (D=>20 uM)”.
For `CCOC(=O)c1ccc2nc(NCC(C)(C)c3ccc(F)cc3)sc2c1` [ethyl 2-(2-(4-fluorophenyl)-2-methylpropylamino)benzo[d] thiazole-6-carboxylate], the “Mean AC1.4” value (Table 4) was “B (B=1-10 uM)”.
In the case of `CCOC(=O)CCc1nsc(NCC(C)(C)c2ccc(F)cc2)n1` [ethyl 3-(5-{[2-(4-fluorophenyl)-2-methylpropyl]amino}-1,2,4-thiadiazol-3-yl)propanoate], the “Mean AC1.4” value (Table 2) is “B (B=1-10 uM)”.
Consider `CCOC(=O)/C=C/c1nsc(NCC(C)(C)c2ccc(F)cc2)n1` [ethyl (2E)-3-(5-{[2-(4-fluorophenyl)-2-methylpropyl]amino}(1,2,4-thiadiazol-3-yl))prop-2-enoate], for which the “Mean AC1.4” value (Table 2) is listed as “D (D=>20 uM)”.
In the case of `COC(=O)CNc1nc(-c2cccc(C#N)c2)ns1` [methyl 2-{[3-(3-cyanophenyl)-1,2,4-thiadiazol-5-yl]amino}acetate], the “Mean AC1.4” value (Table 2) was “D (D=>20 uM)”.
As for `COC(=O)N1CCN(CCc2nsc(NCC(C)(C)c3ccc(F)cc3)n2)CC1` [methyl 4-[2-(5-{[2-(4-fluorophenyl)-2-methylpropyl]amino}-1,2,4-thiadiazol-3-yl)ethyl]piperazinecarboxylate], the “Mean AC1.4” value (Table 2) is recorded as “D (D=>20 uM)”.
On to `COC(=O)N1CCN(Cc2nsc(NCC(C)(C)c3ccc(F)cc3)n2)CC1` [methyl 4-[(5-{[2-(4-fluorophenyl)-2-methylpropyl]amino}-1,2,4-thiadiazol-3-yl)methyl]piperazinecarboxylate], for which the “Mean AC1.4” value (Table 2) is “C (C=10-20 uM)”.
`COC(=O)c1ccc(F)c(-c2nnc(NC[C@]3(c4ncccc4F)C[C@H](F)C3)s2)c1` [methyl 4-fluoro-3-(5-((3-fluoro-1-(3-fluoropyridin-2-yl)cyclobutyl)methylamino)-1,3,4-thiadiazol-2-yl)benzoate]: the “Mean AC1.4” value (Table 3) is “B (B=1-10 uM)”.
In the case of `CC(C)(C)OC(=O)N1CCN(Cc2nsc(NCC(C)(C)c3ccc(F)cc3)n2)CC1` [tert-butyl 4-[(5-{[2-(4-fluorophenyl)-2-methylpropyl]amino}-1,2,4-thiadiazol-3-yl)methyl]piperazinecarboxylate], the “Mean AC1.4” value (Table 2) is reported as “D (D=>20 uM)”.
Take `CN(C)CCNc1nsc(NCC(C)(C)c2ccc(F)cc2)n1` [{2-[(5-{[2-(4-fluorophenyl)-2-methylpropyl]amino}(1,2,4-thiadiazol-3-yl))amino]ethyl}dimethylamine]: the “Mean AC1.4” value (Table 2) is listed as “D (D=>20 uM)”.
For `COc1cccc(Cc2nsc(NCCc3nc(C)cs3)n2)c1` [{3-[(3-methoxyphenyl)methyl](1,2,4-thiadiazol-5-yl)}[2-(4-methyl(1,3-thiazol-2-yl))ethyl]amine], the “Mean AC1.4” value (Table 2) is listed as “D (D=>20 uM)”.
With `COc1cccc(Cc2nsc(NCCc3cccc(C(F)(F)F)c3)n2)c1` [{3-[(3-methoxyphenyl)methyl](1,2,4-thiadiazol-5-yl)}{2-[3-(trifluoromethyl)phenyl]ethyl}amine], the “Mean AC1.4” value (Table 2) is reported as “D (D=>20 uM)”.
For the molecule `Fc1ccc(Cc2nsc(NCCc3ccccn3)n2)cc1` [{3-[(4-fluorophenyl)methyl](1,2,4-thiadiazol-5-yl)}(2-(2-pyridyl)ethyl)amine], the “Mean AC1.4” value (Table 2) is given as “D (D=>20 uM)”.
Same read-out and setting: the same measure for `Fc1ccc(Cc2nsc(NCCc3cccnc3)n2)cc1` [{3-[(4-fluorophenyl)methyl](1,2,4-thiadiazol-5-yl)}(2-(3-pyridyl)ethyl)amine]: “D (D=>20 uM)”; for `Fc1ccc(Cc2nsc(NCCc3ccncc3)n2)cc1` [{3-[(4-fluorophenyl)methyl](1,2,4-thiadiazol-5-yl)}(2-(4-pyridyl)ethyl)amine]: “D (D=>20 uM)”; for `Fc1ccc(Cc2nsc(NCCc3ccccc3)n2)cc1` [{3-[(4-fluorophenyl)methyl](1,2,4-thiadiazol-5-yl)}(2-phenylethyl)amine]: “D (D=>20 uM)”.
As to `CC(C)CCNc1nc(Cc2ccc(F)cc2)ns1` [{3-[(4-fluorophenyl)methyl](1,2,4-thiadiazol-5-yl)}(3-methylbutyl)amine], the “Mean AC1.4” value (Table 2) was “D (D=>20 uM)”.
